Consider seven compounds from patent US20220281830A1, “SALT” (NIPPON SHINYAKU CO., LTD., priority 2019, published 2022).

The nature of data set [1]: Rat in vivo study: plasma pharmacokinetics of MRE-269 after oral capsule dosing. The arrangement: species or system Sprague-Dawley rat. How it is done:
Qualicaps, Nara, Japan) and given orally to male Sprague-Dawley rat (Japan SLC, Sizuoka, Japan) at a dose level of 1 mg/capsule/body. […] • The concentration of MRE-269 in plasma sample was determined by high performance liquid chromatography (HPLC) tandem mass spectrometry (LC-MS/MS). […] For LC-MS/MS, a Nexera HPLC system (Shimadzu, Kyoto, Japan) equipped with an InertSustain C18 column (2-μm particle size; 2.1 mm i.d.×50 mm; GL Science) connected to a TQ4500 or TQ5500 tandem mass spectrometer (Sciex, Framingham, Mass.) was used. The HPLC mobile phase was 0.1% formic acid (solvent A) and acetonitrile (solvent B). A gradient was run at 85% solvent B in 2.5 min at a flow rate of 0.4 mL/min and 40° C. Each analyte detected was quantified in positive ion multiple reaction monitoring mode by applying the following precursor-to-product transitions: […] • The pharmacokinetic parameters were calculated with Phoenix WinNonlin version 8.1.0 (Certara Princeton, NJ). Relative bioavailability (BA) to MRE-269 was calculated according to the following equation. Relative BA (%)=(AUC0-24(each salt)/(AUC0-24(MRE-269, mean)×100

Data set [2] in a line: Thermodynamic stability of the free-form crystal. The class given is physicochemical. The settings on record: free form produced according to Example 42 of PTL 1. From the text: A method for producing Compound B is disclosed in Example 42 of PTL 1. […] Thus, the present invention was completed.
[3] abbreviates: MRE-269 in plasma, male Sprague-Dawley rat, oral, HPMC capsule, 1 mg/capsule/body.

Read-outs that look alike come from different tables or passages of the source.

In data set [1] (rat, in vivo, po), `CC(C)N(CCCCOCC(=O)O)c1cnc(-c2ccccc2)c(-c2ccccc2)n1.O=S(=O)(O)CCS(=O)(=O)O` [1,2-Ethanedisulfonate salt (Pattern A), 1,2-Ethanedisulfonate salt of 2-[4-[(5,6-diphenylpyrazin-2-yl)-propan-2-ylamino]butoxy]acetic acid] came in with a t1/2 of 3.99 ± 2.01 h and a tmax of 3.10 ± 2.30 h.
In the case of `CC(C)N(CCCCOCC(=O)[O-])c1cnc(-c2ccccc2)c(-c2ccccc2)n1.CC(C)N(CCCCOCC(=O)[O-])c1cnc(-c2ccccc2)c(-c2ccccc2)n1.[Ca+2]` [Calcium salt (Pattern 1), Calcium salt of 2[4-[(5,6-diphenylpyrazin-2-yl)-propan-2-ylamino]butoxy]acetic acid], the tmax in data set [1] (rat, in vivo, po) was found to be 7.50 ± 3.79 h.
Regarding `CC(C)N(CCCCOCC(=O)O)c1cnc(-c2ccccc2)c(-c2ccccc2)n1` [MRE-269, 2-(4-((5,6-diphenylpyrazin-2-yl)(isopropyl)amino)butoxy)acetic acid, reference compound], the AUC(0-t) (as a rule, the area under the concentration-time curve up to a stated or last time point) in data set [1] (setting [3]) was determined as 5620 ± 1920 ng·h/mL. Further, the Cmax – broadly, the highest concentration seen after dosing – in data set [1] (MRE-269 in plasma, male Sprague-Dawley rat, oral, HPMC capsule, 1 mg/capsule/body, read-out: Cmax) was 475 ± 142 ng/mL. In data set [1] (MRE-269 in plasma, male Sprague-Dawley rat, oral, HPMC capsule, 1 mg/capsule/body, read-out: tmax), the tmax worked out at 6.5 ± 3 h.
In data set [1] (rat, in vivo, po), `CC(C)N(CCCCOCC(=O)[O-])c1cnc(-c2ccccc2)c(-c2ccccc2)n1.[K+]` [Potassium salt, Potassium salt of 2-[4-[(5,6-diphenylpyrazin-2-yl)-propan-2-ylamino]butoxy]acetic acid] returned a t1/2 of 8.96 ± 8.00 h and a tmax of 3.25 ± 3.20 h.
In data set [1] (rat, in vivo, po), `CC(C)N(CCCCOCC(=O)[O-])c1cnc(-c2ccccc2)c(-c2ccccc2)n1.[Na+]` [Sodium salt, Sodium salt of 2-[4-[(5,6-diphenylpyrazin-2-yl)-propan-2-ylamino]butoxy]acetic acid] came in with a tmax of 7.50 ± 1.91 h.
Turning to `CC(C)N(CCCCOCC(=O)O)c1cnc(-c2ccccc2)c(-c2ccccc2)n1.NC(CO)(CO)CO` [Tromethamine salt, Tromethamine salt of 2-[4-[(5,6-diphenylpyrazin-2-yl)-propan-2-ylamino]butoxy]acetic acid], in data set [1] (setting [3]), the AUC0-last was found to be 7170 ± 2320 ng·h/mL, the “AUC0-∞” value was found to be 6520 ± 1890 ng·h/mL, the maximum concentration (Cmax) came out at 949 ± 555 ng/mL and the t1/2 came to 3.48 ± 0.43 h. In data set [1] (setting [3]), the tmax was 4.00 ± 3.94 h. Besides, the “relative BA” value in data set [1] (relative to MRE-269: AUC0-24(each salt)/AUC0-24(MRE-269, mean)×100, rat, oral, 1 mg/capsule/body) is on record as 128 ± 41%.
For the compound `CC(C)N(CCCCOCC(=O)O)c1cnc(-c2ccccc2)c(-c2ccccc2)n1` [form-III crystal, 2-(4-((5,6-diphenylpyrazin-2-yl)(isopropyl)amino)butoxy)acetic acid], the thermodynamic stability result in data set [2] is reported as “thermodynamically unstable”.
